Results published in patent publication US11814367B2, “Inhibitors of glycogen synthase 1 (GYS1) and methods of use thereof” (Maze Therapeutics, Inc., priority 2021, dated 2023).

What was measured:
[1] = target: hGYS1 enzyme (recombinant hGYS1/GN1 protein) (Homo sapiens (Human), UniProt P13807); assay: GYS1 coupled enzyme assay (PK/LDH); type: biochemical; conditions: hGYS1/GN1 50 nM, UDP-Glucose 0.8 mM, G6P 1 mM; geometric mean of at least 2 runs
[2] = tested on: hGYS1 enzyme / glycogen synthesis in HeLa cells; assay: GYS1 cell based assay (glycogen synthesis, Glucose-glo); set-up: species or system human; conditions: Homo sapiens, HeLa, 24 h, 24 h incubation, 20 mM glucose, geometric mean of at least 2 runs
Source text: The GYS1 cell based assay is a bioluminescent assay that quantifies the glucose resulting from glycogen digestion; the quantified glucose is an indirect measure of GYS1 glycogen synthesis. Newly synthesized glycogen is digested using Glucoamylase; the resulting glucose is quantified by using the Glucose-glo assay kit from Promega. Glucose-glo works by coupling glucose oxidation and NADH production with a bioluminescent system that is activated with NADH. Glucose is oxidized by Glucose dehydrogenase and the reaction reduces NAD+ to NADH; NADH activates Reductase which reduces a pro-luciferin Reductase Substrate to luciferin. Luciferin is detected in a luciferase reaction using Ultra-Glo rLuciferase and ATP, and the luminesce produced is proportional to the glucose in the sample. The luminescence is measured as a single point read in a plate reader.
Compounds that inhibit the hGYS1 enzyme and, subsequently, the glycogen synthesis in cells, were tested using assay ready plates (white, clear bottom 384 well plates) in a final DMSO reaction volume of 1% DMSO. Compounds in the assay ready plates were mixed with media with no additives, except for 20 mM glucose prior to cell addition. HeLa cells were starved in media with no additives, except for 1× Glutamax for 24 h. Starved HeLa cells were plated, in a 1:1 ratio to the media in the assay ready plate and incubated for 24 h at 37° C. and 5% C02. Cells were washed in 1×PBS buffer and lysed in lysis buffer containing 50% 1×PBS and 25% 0.3 N HCl of the final volume in the well or reaction volume; cells were incubated with lysis buffer for 10 minutes and quenched with the remaining 25% of the reaction volume that consisted of 450 mM Tris pH 8.0. Lysates were mixed in a 1:1 ratio with Glucoamylase in 100 mM Sodium Acetate buffer, pH 5.3; the mixture was incubated for 1 h at 37° C. The digested lysate was mixed in a 1:1 ratio with Glucose-glo detection mixture as per vendor recommendations (Luciferase detection buffer, Reductase, Reductase substrate, Glucose dehydrogenase, and NAD) in read-out plates (solid white 384-well plates) and incubated for 1 h at RT. The plates were read using a plate reader with luminescence capabilities. Each compound concentration Relative Luminescence Unit (RLU) was averaged and normalized to the average RLU of the positive and negative controls to obtain a percentage inhibition. The normalized data vs. concentration was plotted; to determine the half-maximal concentration (IC50), the Levenberg-Marquardt algorithm was used to fit a Hill equation to the dose response data.
The results are shown in Table 3 below, which reports the IC50 of each compound. Unless otherwise specified, IC50 values are reported as the geometric mean of at least 2 assay runs on separate days. As shown in the table below, the compounds of the present invention are potent inhibitors of human GYS1. Unless otherwise specified, IC50 values are reported as the geometric mean of at least two assay runs on separate days. Each run represents the average of a technical replicate, where each compound was assayed twice in the same plate. A superscript “#” symbol in Table 3 indicates results from a single assay run.

Sequence of hGYS1 enzyme (recombinant hGYS1/GN1 protein) (P13807 whole entry): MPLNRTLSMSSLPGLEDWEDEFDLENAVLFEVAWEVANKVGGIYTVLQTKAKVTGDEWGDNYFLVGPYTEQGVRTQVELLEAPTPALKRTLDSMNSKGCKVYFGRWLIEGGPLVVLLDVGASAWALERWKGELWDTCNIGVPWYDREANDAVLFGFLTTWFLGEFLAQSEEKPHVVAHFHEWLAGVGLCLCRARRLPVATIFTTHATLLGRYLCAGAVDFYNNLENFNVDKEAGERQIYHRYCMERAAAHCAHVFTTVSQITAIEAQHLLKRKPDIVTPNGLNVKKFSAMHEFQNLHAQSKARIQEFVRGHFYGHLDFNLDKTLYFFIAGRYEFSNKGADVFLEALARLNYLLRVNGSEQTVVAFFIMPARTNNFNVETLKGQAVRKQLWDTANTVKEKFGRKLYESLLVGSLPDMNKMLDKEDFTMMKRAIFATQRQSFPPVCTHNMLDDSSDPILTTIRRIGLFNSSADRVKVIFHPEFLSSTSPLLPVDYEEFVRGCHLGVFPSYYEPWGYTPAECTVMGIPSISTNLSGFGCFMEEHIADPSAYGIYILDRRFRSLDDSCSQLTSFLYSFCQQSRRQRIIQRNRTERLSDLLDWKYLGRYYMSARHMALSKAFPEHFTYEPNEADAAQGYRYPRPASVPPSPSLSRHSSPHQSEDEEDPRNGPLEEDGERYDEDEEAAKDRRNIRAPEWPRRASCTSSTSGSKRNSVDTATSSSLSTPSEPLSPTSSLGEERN
Sequence of hGYS1 enzyme (recombinant hGYS1/GN1 protein) (P46976 whole entry partner): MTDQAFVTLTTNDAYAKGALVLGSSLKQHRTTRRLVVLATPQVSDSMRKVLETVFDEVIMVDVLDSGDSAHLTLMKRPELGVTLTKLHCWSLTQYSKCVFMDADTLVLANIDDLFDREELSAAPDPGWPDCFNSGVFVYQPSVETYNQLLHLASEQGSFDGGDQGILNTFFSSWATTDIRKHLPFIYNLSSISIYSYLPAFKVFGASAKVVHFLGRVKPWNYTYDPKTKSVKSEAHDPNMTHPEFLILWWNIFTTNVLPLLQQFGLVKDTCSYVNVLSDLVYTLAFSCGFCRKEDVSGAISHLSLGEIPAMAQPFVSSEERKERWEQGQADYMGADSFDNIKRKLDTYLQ

| SMILES | IC50 [1] | IC50 [2] |
| --- | --- | --- |
| Cc1nccc(NCC(=O)N2C[C@H](F)C[C@H]2C(=O)N[C@H](c2ccccc2)c2ccc(C3CC3)c(F)n2)n1 [Compound 720, (2S,4R)-N-[(R)-(5-cyclopropyl-6-fluoropyridin-2-yl)(phenyl)methyl]-4-fluoro-1-{2-[(2-methylpyrimidin-4-yl)amino]acetyl}pyrrolidine-2-carboxamide] | 2450 nM | > 30000 nM |
| O=C(N[C@@H](c1ccccc1)c1ccc(C2CC2)c(F)n1)[C@@H]1C[C@@H](F)CN1C(=O)Cn1nnnc1C(F)(F)F [Compound 755, (2S,4R)-N-[(S)-(5-cyclopropyl-6-fluoropyridin-2-yl)(phenyl)methyl]-4-fluoro-1-{2-[5-(trifluoromethyl)-1H-1,2,3,4-tetrazol-1-yl]acetyl}pyrrolidine-2-carboxamide] | 102 nM | 1060 nM |
| O=C(N[C@@H](c1ccccc1)c1ccc(C2CC2)c(F)n1)[C@@H]1C[C@@H](F)CN1C(=O)Cc1c[nH]c(=O)cn1 [Compound 746, (2S,4R)-N-[(S)-(5-cyclopropyl-6-fluoropyridin-2-yl)(phenyl)methyl]-4-fluoro-1-[2-(5-oxo-4,5-dihydropyrazin-2-yl)acetyl]pyrrolidine-2-carboxamide] | 70 nM | 1620 nM |
| COc1ncccc1C(NC(=O)[C@@H]1C[C@@H](F)CN1C(=O)Cc1cnn[nH]1)c1ccc(C2(C)CC2)c(F)c1 (single isomer, unassigned) [Compound 626, (2S,4R)-4-fluoro-N-[(R) or (S)-[3-fluoro-4-(1-methylcyclopropyl)phenyl](2-methoxypyridin-3-yl)methyl]-1-[2-(1H-1,2,3-triazol-5-yl)acetyl]pyrrolidine-2-carboxamide] | 805 nM | > 30000 nM |
| CC(C)c1ccc([C@@H](NC(=O)[C@@H]2C[C@@H](F)CN2C(=O)Cc2[nH]nnc2N(C)C)c2ccccc2)cc1F [Compound 775, (2S,4R)-1-{2-[4-(dimethylamino)-1H-1,2,3-triazol-5-yl]acetyl}-4-fluoro-N-[(S)-[3-fluoro-4-(propan-2-yl)phenyl](phenyl)methyl] pyrrolidine-2-carboxamide] | 1080 nM | > 17500 nM |
| O=C(N[C@@H](c1ccccc1)c1ccc(C2CC2)c(F)c1)[C@@H]1C[C@@H](F)CN1C(=O)CN1CCOCC1=O [Compound 423, (2S,4R)-N-[(S)-(4-cyclopropyl-3-fluorophenyl)(phenyl)methyl]-4-fluoro-1-[2-(3-oxomorpholin-4-yl)acetyl]pyrrolidine-2-carboxamide] | 350 nM | > 9260 nM |
| CC(=O)N1C[C@H]2CC[C@H](C(=O)N3C[C@H](F)C[C@H]3C(=O)N[C@@H](c3ccccc3)c3ccc(C(C)C)cc3)[C@H]2C1 [Compound 177, (2S,4R)-1-[(3aS,4S,6aS)-2-acetyl-octahydrocyclopenta[c]pyrrole-4-carbonyl]-4-fluoro-N-[(S)-phenyl[4-(propan-2-yl)phenyl]methyl]pyrrolidine-2-carboxamide] | 349 nM | 2090 nM |
| CCN(CC)c1cnnn1CC(=O)N1C[C@H](F)C[C@H]1C(=O)N[C@@H](c1ccccc1)c1ccc(C2CC2)c(F)n1 [Compound 748, (2S,4R)-N-[(S)-(5-cyclopropyl-6-fluoropyridin-2-yl)(phenyl)methyl]-1-{2-[5-(diethylamino)-1H-1,2,3-triazol-1-yl]acetyl}-4-fluoropyrrolidine-2-carboxamide] | 15 nM | 530 nM |
| CC(C)c1ccc([C@@H](NC(=O)[C@@H]2C[C@@H](F)CN2C(=O)Cc2noc(=O)n2C)c2ccccc2)nc1 [Compound 267, (2S,4R)-4-fluoro-1-[2-(4-methyl-5-oxo-4,5-dihydro-1,2,4-oxadiazol-3-yl)acetyl]-N-[(S)-phenyl[5-(propan-2-yl)pyridin-2-yl]methyl]pyrrolidine-2-carboxamide] | 464 nM | 4300 nM |
| CC(C)c1ccc(C(NC(=O)[C@@H]2C[C@@H](F)CN2C(=O)Cc2cnn[nH]2)C2CC2)cc1F (single isomer, unassigned) [Compound 652, (2S,4R)-N-[(S) or (R)-cyclopropyl[3-fluoro-4-(propan-2-yl)phenyl]methyl]-4-fluoro-1-[2-(1H-1,2,3-triazol-5-yl)acetyl]pyrrolidine-2-carboxamide] | 1200 nM | 21600 nM |
| CCn1ccnc(CC(=O)N2C[C@H](F)C[C@H]2C(=O)N[C@@H](c2ccccc2)c2ccc(C3CC3)c(F)n2)c1=O [Compound 753, (2S,4R)-N-[(S)-(5-cyclopropyl-6-fluoropyridin-2-yl)(phenyl)methyl]-1-[2-(4-ethyl-3-oxo-3,4-dihydropyrazin-2-yl)acetyl]-4-fluoropyrrolidine-2-carboxamide] | 21 nM | 320 nM |
| O=C(N[C@H](c1ccccc1)c1ccc(C2CC2)c(F)n1)[C@@H]1C[C@@H](F)CN1C(=O)Cn1cnc2ccccc21 [Compound 716, (2S,4R)-1-[2-(1H-1,3-benzodiazol-1-yl)acetyl]-N-[(R)-(5-cyclopropyl-6-fluoropyridin-2-yl)(phenyl)methyl]-4-fluoropyrrolidine-2-carboxamide] | – | 22300 nM |
| O=C(N[C@@H](c1ccccc1)c1ccc(C2CC2)c(F)n1)[C@@H]1C[C@@H](F)CN1C(=O)CNC(=O)N1CCC1 [Compound 305, (2S,4R)-1-{2-[(azetidine-1-carbonyl)amino]acetyl}-N-[(S)-(5-cyclopropyl-6-fluoropyridin-2-yl)(phenyl)methyl]-4-fluoropyrrolidine-2-carboxamide] | – | 630 nM |
| CC(C)c1ccc([C@@H](NC(=O)[C@@H]2C[C@@H](F)CN2C(=O)Cc2nc(C(F)(F)F)co2)c2ccccc2)nc1F [Compound 801, (2S,4R)-4-fluoro-N-[(S)-[6-fluoro-5-(propan-2-yl)pyridin-2-yl](phenyl)methyl]-1-{2-[4-(trifluoromethyl)-1,3-oxazol-2-yl]acetyl} pyrrolidine-2-carboxamide] | – | 380 nM |
| CC(C)c1ccc([C@@H](NC(=O)[C@@H]2C[C@@H](F)CN2C(=O)Cn2cc(N3CCC3)nn2)c2ccccc2)nc1F [Compound 787, (2S,4R)-1-{2-[4-(azetidin-1-yl)-1H-1,2,3-triazol-1-yl]acetyl}-4-fluoro-N-[(S)-[6-fluoro-5-(propan-2-yl)pyridin-2-yl](phenyl)methyl] pyrrolidine-2-carboxamide] | – | 130 nM |
| CC(C)c1ccc([C@@H](NC(=O)[C@@H]2C[C@@H](F)CN2C(=O)CNC(=O)N(C)C)c2ccccc2)cc1F [Compound 361, (2S,4R)-1-{2-[(dimethylcarbamoyl)amino]acetyl}-4-fluoro-N-[(S)-[3-fluoro-4-(propan-2-yl)phenyl](phenyl)methyl] pyrrolidine-2-carboxamide] | – | 210 nM |
| COc1cccc(C(NC(=O)[C@@H]2C[C@@H](F)CN2C(C)=O)c2ccc(C(C)C)c(F)n2)c1 (single isomer, unassigned) [Compound 654, (2S,4R)-1-acetyl-4-fluoro-N-[(S) or (R)-[6-fluoro-5-(propan-2-yl)pyridin-2-yl](3-methoxyphenyl)methyl]pyrrolidine-2-carboxamide] | – | 3290 nM |
| COc1nc(CC(=O)N2C[C@H](F)C[C@H]2C(=O)N[C@@H](c2ccccc2)c2ccc(C(C)C)c(F)n2)nn1C [Compound 800, (2S,4R)-4-fluoro-N-[(S)-[6-fluoro-5-(propan-2-yl)pyridin-2-yl](phenyl)methyl]-1-[2-(5-methoxy-1-methyl-1H-1,2,4-triazol-3-yl)acetyl] pyrrolidine-2-carboxamide] | – | 180 nM |
| CC(=O)N1C[C@H](F)C[C@H]1C(=O)NC(c1cccc(-c2cc(C)nn2C)c1)c1ccc(C(C)C)c(F)n1 (single isomer, unassigned) [Compound 697, (2S,4R)-1-acetyl-N-[(S) or (R)-[3-(1,3-dimethyl-1H-pyrazol-5-yl)phenyl][6-fluoro-5-(propan-2-yl)pyridin-2-yl]methyl]-4-fluoropyrrolidine-2-carboxamide] | – | 9200 nM |
